# In article PMC3555856, “In vitro α-glucosidase inhibitory activity of phenolic constituents from aerial parts of Polygonum hyrcanicum” (DARU Journal of Pharmaceutical Sciences, 2012):
# Like-named read-outs stand apart in the source and are kept apart here.
# Key:
# [1] = biological target: T1, α-glucosidase (EC 3.2.1.20, from baker's yeast) (Saccharomyces cerevisiae, UniProt P53341); experiment: biochemical; conditions: pH 6.9, 37°C
# T1 construct: purchased Sigma-Aldrich Chemie (Germany)
# Procedure: Column chromatography was carried out using silica gel (230–400 mesh) obtained from Merck (Germany), RP-18 (230–400 mesh) and Sephadex LH-20 procured from Fluka (Switzerland). Pre-coated silica gel 60 F254 plates and silica gel 60 RP-18 F254S plates (Merck, Germany) were used for TLC. Spots were observed under UV at 254 and 366 nm and spraying with anisaldehyde-H2SO4 reagent (Sigma-Aldrich Chemie, Germany) and heating at 120°C for 5 min. HPLC separations were performed on a Knauer Wellchrom system connected to a photodiode array detector (Smart line system, Germany). ^1H and ^13C NMR spectra were measured on a Bruker Avance DRX 500 spectrometer operating at 500 MHz for ^1H and 125 MHz for ^13C using a 5 mm PABBO probehead. α-glucosidase (EC 3.2.1.20, from baker’s yeast, 77 U/mg), p-nitrophenyl-α-d-glucopyranoside, vitamin E 97% and 2, 2-diphenyl-picrylhydrazyl (DPPH) were obtained from Sigma-Aldrich Chemie (Germany). Sodium carbonate, FeCl3, sodium acetate, ferrous sulfate [FeSO4.7H2O], gallic acid, 2, 4, 6-tripyridyl-s-triazine (TPTZ) solution, and Folin-Ciocalteu reagent were all obtained from Merck (Germany).
# α-Glucosidase inhibitory activities were evaluated according to the chromogenic method described by McCue et al. (2005), with some modifications. The enzyme solution contained 20 μl α-glucosidase (0.5 unit/ml) and 120 μl 0.1 M phosphate buffer (pH 6.9). p-Nitrophenyl-α-D-glucopyranoside (5 mM) in the same buffer (pH 6.9) was used as a substrate solution. Ten microliters of test samples, dissolved in DMSO at various concentrations, were mixed with enzyme solution in microplate wells and incubated for 15 min at 37°C. Twenty microliters of substrate solution were added and incubated for an additional 15 min. The reaction was terminated by adding 80 μl of 0.2 M sodium carbonate solution. Absorbance of the wells was measured with a microplate reader at 405 nm, while the reaction system without plant extracts was used as control. […] Each experiment was conducted in triplicate. The enzyme inhibitory rates of samples were calculated as follows:
# Inhibition%=[(control absorption-sample absorption)/control absorption)]×100.
# The IC50 values of samples were calculated and reported as the mean ± standard deviation (SD) of three experiments.
# [2] = DPPH free radical scavenging activity; conditions: absorbance at 517 nm after 30 minutes
# Procedure: The antioxidant activities of the extracts were determined with the DPPH assay according to an established protocol. Extract solutions of 500, 250, 100, and 50 μg/ml were prepared in methanol. Each test tube contained 1 ml of the samples and 2 ml freshly prepared DPPH solution of 40 μg/ml in methanol. […] Absorbance of the mixtures were recorded at 517 nm after 30 minutes, against the blank covets of DPPH solution. Vitamin E was used as a positive control. All samples were assayed in triplicate and IC50 values were calculated.
# [3] = FRAP assay (ferric-reducing ability); conditions: 37°C, 10 minutes, 593 nm
# Procedure: Antioxidant activities of plant extracts were evaluated by monitoring their ferric-reducing abilities. Freshly prepared FRAP reagent contained 5 ml FeCl3 (20 mM) plus 5 ml of a 10 mM TPTZ solution in 40 mM HCl and 50 ml of 300 mM acetate buffer (pH = 3.6). One hundred microliters of the samples, dissolved in methanol at various concentrations, were mixed with 3 ml FRAP reagent and incubated at 37°C for 10 minutes; the absorptions at 593 nm were recorded. A calibration curve was generated in the range of 125–750 μM ferrous sulfate (FeSO4.7H2O). Vitamin E was used as a positive control and the results were expressed as mmol ferrous ion equivalent per gram of extracts.
# [4] = mean ± SD of three experiments, read-out: α-Glucosidase inhibitory activity IC50
# [5] = α-Glucosidase inhibitory activity IC50, mean ± SD of three experiments
# T1 sequence (P53341 whole entry): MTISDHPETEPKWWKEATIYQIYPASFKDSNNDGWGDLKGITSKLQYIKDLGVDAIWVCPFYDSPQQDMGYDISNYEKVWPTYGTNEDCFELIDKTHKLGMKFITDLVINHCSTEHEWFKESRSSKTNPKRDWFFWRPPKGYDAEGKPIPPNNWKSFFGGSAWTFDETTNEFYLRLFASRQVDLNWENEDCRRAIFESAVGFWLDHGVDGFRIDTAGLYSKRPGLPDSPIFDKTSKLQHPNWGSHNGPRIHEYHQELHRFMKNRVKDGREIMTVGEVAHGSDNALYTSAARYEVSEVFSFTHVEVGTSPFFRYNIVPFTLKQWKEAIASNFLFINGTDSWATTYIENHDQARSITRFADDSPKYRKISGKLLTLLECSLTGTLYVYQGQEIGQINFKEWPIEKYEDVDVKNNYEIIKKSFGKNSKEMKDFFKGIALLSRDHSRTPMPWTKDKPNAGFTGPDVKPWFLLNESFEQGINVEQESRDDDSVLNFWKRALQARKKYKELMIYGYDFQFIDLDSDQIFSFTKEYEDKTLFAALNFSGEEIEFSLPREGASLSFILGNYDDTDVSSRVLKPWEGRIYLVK
Molecule,"IC50 [1, 4]",further results
"Oc1cc(O)c2c(c1)OC(c1cc(O)c(O)c(O)c1)C(O)C2 (single isomer, unassigned; (-)) [Compound 8, (-) gallocatechin]",–,"IC50 [1, 5]: 1 ± 0.3 µM"
"O=c1c(O)c(-c2cc(O)c(O)c(O)c2)oc2cc(O)cc(O)c12 [Compound 2, myricetin]",–,"IC50 [1, 5]: 1.3 ± 0.6 µM"
"O=C(/C=C/c1ccc(O)c(O)c1)NCCc1ccc(O)cc1 [Compound 3, N-trans-caffeoyl-tyramine]",0.3 ± 0.3 µM,–
"CC(=O)OC[C@@H]1O[C@@H](Oc2c(-c3ccc(O)c(O)c3)oc3cc(O)cc(O)c3c2=O)[C@H](O)[C@H]1OC(C)=O [Compound 4, quercetin 3-O-α-L-(3"",5""-diacetyl-arabinofuranoside)]",4.9 ± 1.5 µM,–
"CC(=O)OC1C(CO)OC(Oc2c(-c3ccc(O)c(O)c3)oc3cc(O)cc(O)c3c2=O)C1O [Compound 5, quercetin 3-O-α-L-(3""-acetyl-arabinofuranoside)]",4.8 ± 1.9 µM,–
"O=c1c(O[C@@H]2O[C@@H](CO)[C@H](O)[C@H]2O)c(-c2ccc(O)c(O)c2)oc2cc(O)cc(O)c12 [Compound 13, quercetin 3-O-α-L-arabinofuranoside]",–,"IC50 [1, 5]: 7.6 ± 0.9 µM"
vitamin E,–,DPPH assay IC50 [2]: 14.12 ± 0.9 µg/mL; DPPH assay IC50 ([2]; listed as vitamin E): 14.1 µg/mL; FRAP assay [3]: 2.40 ± 0.76 mmol ferrous ion equivalent/g; FRAP assay ([3]; listed as vitamin E): 2.4 mmol ferrous ion equivalent/g

# Now from value to molecule, other results behind:
"IC50 [1, 4]",Molecule,further results
6.6 ± 3.5 µM,"Oc1cc(O)c2c(c1)OC(c1ccc(O)c(O)c1)C(O)C2 (single isomer, unassigned; (+)) [Compound 7, (+) catechin]",–
5.8 ± 2.8 µM,"CC(=O)OC[C@@H]1O[C@@H](Oc2c(-c3cc(O)c(O)c(O)c3)oc3cc(O)cc(O)c3c2=O)[C@H](O)[C@H]1OC(C)=O [Compound 6, myricetin 3-O-α-L-(3"",5""-diacetyl-arabinofuranoside)]",–
4.8 ± 0.8 µM,"O=c1c(OC2OC(CO)C(O)C(O)C2O)c(-c2cc(O)c(O)c(O)c2)oc2cc(O)cc(O)c12 [Compound 9, myricetin 3-O-β-D-galactopyranoside]",–
4.2 ± 2.9 µM,"O=c1c(O[C@@H]2O[C@@H](CO)[C@H](O)[C@H]2O)c(-c2cc(O)c(O)c(O)c2)oc2cc(O)cc(O)c12 [Compound 12, myricetin 3-O-α-L-arabinofuranoside]",–
